Source: the supplement of paper PMC10307832

Assays:
Experiment in all cases: relative viability (nuclei count vs DMSO), 5 days (fraction); higher = more cells survive
Avagacestat + Olaparib = compound: NC(=O)[C@@H](CCC(F)(F)F)N(Cc1ccc(-c2ncon2)cc1F)S(=O)(=O)c1ccc(Cl)cc1 [Avagacestat] + O=C(c1cc(Cc2n[nH]c(=O)c3ccccc23)ccc1F)N1CCN(C(=O)C2CC2)CC1 [Olaparib] (partner 8 µM)
Summary of the method: (§1)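 Relative viability was taken as the ratio of nuclei in treated wells to nuclei in vehicle wells. Lung cancer cell lines in 1536-well plates received compounds by pin tool one day after seeding, either one drug alone or a fixed anchor-drug dose plus five library-drug doses (not always all listed) in √10 steps. Nuclei were counted on 4× images after 5 days of treatment, and values are medians of duplicate plates.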

Avagacestat + Pemetrexed = compound: NC(=O)[C@@H](CCC(F)(F)F)N(Cc1ccc(-c2ncon2)cc1F)S(=O)(=O)c1ccc(Cl)cc1 [Avagacestat] + Nc1nc2[nH]cc(CCc3ccc(C(=O)N[C@@H](CCC(=O)O)C(=O)O)cc3)c2c(=O)[nH]1 [Pemetrexed] (partner 0.2 µM)
Summary of the method: as §1

Avagacestat + Vorinostat = compound: NC(=O)[C@@H](CCC(F)(F)F)N(Cc1ccc(-c2ncon2)cc1F)S(=O)(=O)c1ccc(Cl)cc1 [Avagacestat] + O=C(CCCCCCC(=O)Nc1ccccc1)NO [Vorinostat] (partner 1 µM)
Summary of the method: as §1

Avagacestat + Linsitinib = compound: NC(=O)[C@@H](CCC(F)(F)F)N(Cc1ccc(-c2ncon2)cc1F)S(=O)(=O)c1ccc(Cl)cc1 [Avagacestat] + C[C@]1(O)C[C@@H](c2nc(-c3ccc4ccc(-c5ccccc5)nc4c3)c3c(N)nccn32)C1 [Linsitinib] (partner 1 µM)
Summary of the method: as §1

Cell Line	relative viability (Avagacestat + Olaparib; first compound 0.08 µM)	relative viability (Avagacestat + Olaparib; first compound 0.253 µM)	relative viability (Avagacestat + Olaparib; first compound 0.8 µM)	relative viability (Avagacestat + Olaparib; first compound 2.53 µM)	relative viability (Avagacestat + Olaparib; first compound 8 µM)	relative viability (Avagacestat + Pemetrexed; first compound 0.08 µM)	relative viability (Avagacestat + Pemetrexed; first compound 0.253 µM)	relative viability (Avagacestat + Pemetrexed; first compound 0.8 µM)	relative viability (Avagacestat + Pemetrexed; first compound 2.53 µM)	relative viability (Avagacestat + Pemetrexed; first compound 8 µM)	relative viability (Avagacestat + Vorinostat; first compound 0.08 µM)	relative viability (Avagacestat + Vorinostat; first compound 0.253 µM)	relative viability (Avagacestat + Vorinostat; first compound 0.8 µM)	relative viability (Avagacestat + Vorinostat; first compound 2.53 µM)	relative viability (Avagacestat + Vorinostat; first compound 8 µM)	relative viability (Avagacestat + Linsitinib; first compound 0.08 µM)	relative viability (Avagacestat + Linsitinib; first compound 0.253 µM)	relative viability (Avagacestat + Linsitinib; first compound 0.8 µM)	relative viability (Avagacestat + Linsitinib; first compound 2.53 µM)	relative viability (Avagacestat + Linsitinib; first compound 8 µM)
NCI-H647	0.766	0.663	0.626	0.508	0.366	0.171	0.171	0.186	0.149	0.15	0.743	0.64	0.579	0.597	0.567	1.78	1.35	1.12	1.16	1.19
NCI-H650	0.399	0.524	0.403	0.427	0.412	1.05	1.04	1.04	0.944	0.868	0.439	0.537	0.56	0.455	0.435	1.22	0.927	1.08	0.912	0.848
NCI-H661	0.795	0.918	0.771	0.774	0.725	0.953	1.01	0.92	0.86	0.909	0.845	0.98	0.827	0.784	0.785	0.736	0.713	0.634		0.566
NCI-H838	1.08	0.87	0.881	0.805	0.575	0.263	0.271	0.28	0.238	0.243	0.737	0.769	0.788	0.672	0.705	1.25	1.26	1.09	0.89	0.918
NCI-H1355	0.851	0.778	0.73	0.691	0.718	1.15	1.15	1.21	0.996	0.943	0.702	0.637	0.628	0.527	0.542	0.95	0.859	0.812	0.687	0.651
NCI-H1395	0.463	0.475	0.516	0.359	0.435	0.866	0.954	1.08	0.798	0.696	0.64	0.519	0.719	0.429	0.63	1.11	1.1	1.04	0.869	0.881
NCI-H1437	0.804	0.743	0.696	0.667	0.543	0.336	0.346	0.329	0.301	0.298	1.03	1.12	1.11	0.893	0.728	1.65	1.14	1.19	0.955	0.721
NCI-H1651	0.219	0.188	0.179	0.19	0.19	0.71	0.591	0.731	0.574	0.559	0.583	0.566	0.681	0.52	0.567	1.37	1.17	1.05	0.854	0.828
